Reference: ChEMBL document CHEMBL1201862, “PubChem BioAssay data set” (2004)
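Briefly, cells in 96-well plates were exposed to five compound concentrations for 48 h, and endpoints were estimated by linear interpolation. Abbreviation: GI50, concentration required for 50% inhibition of growth.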 Active and inactive are the calls of the source. Cut-off read from the data, not from the text of the source: active = GI50 up to about 1.1 µM and inactive = higher.

Assays:
Assay in all cases: NCI anticancer screen, dose series, 48 h
[1] = test system: 786-0
[2] = test system: A549
[3] = test system: ACHN
[4] = test system: BT-549
[5] = test system: CAKI-1
[6] = test system: CCRF-CEM
[7] = test system: COLO 205
[8] = test system: DU-145
[9] = test system: EKVX
[10] = test system: HCT-116
[11] = test system: HCT-15
[12] = test system: HL-60
[13] = test system: HOP-92
[14] = test system: HT-29
[15] = test system: Hs-578T
[16] = test system: IGROV-1
[17] = test system: K562
[18] = test system: KM12
[19] = test system: M14
[20] = test system: MCF7
[21] = test system: MDA-MB-231
[22] = test system: MDA-MB-435
[23] = test system: MDA-N
[24] = test system: MOLT-4
[25] = test system: Malme-3M
[26] = test system: NCI-H226
[27] = test system: NCI-H23
[28] = test system: NCI-H460
[29] = test system: NCI-H522
[30] = test system: NCI/ADR-RES
[31] = test system: OVCAR-5
[32] = test system: OVCAR-8
[33] = test system: PC-3
[34] = test system: RPMI-8226
[35] = test system: RXF 393
[36] = test system: SF-268
[37] = test system: SF-295
[38] = test system: SF-539
[39] = test system: SK-MEL-2
[40] = test system: SK-MEL-5
[41] = test system: SK-OV-3
[42] = test system: SN12C
[43] = test system: SNB-19
[44] = test system: SNB-75
[45] = test system: SR
[46] = test system: SW-620
[47] = test system: T47D
[48] = test system: TK-10
[49] = test system: U-251
[50] = test system: UACC-257
[51] = test system: UACC-62
[52] = test system: UO-31
[53] = test system: HOP-62
[54] = test system: LOX IMVI
[55] = test system: OVCAR-3
[56] = test system: OVCAR-4
[57] = test system: A498
[58] = test system: HCC 2998
[59] = test system: SK-MEL-28

COC(CNC(=O)C(C)NC(=O)/C=C/c1ccccc1)OC (centres undefined)
GI50 [1]: > 100 µM (inactive) | GI50 [2]: > 100 µM (inactive) | GI50 [3]: > 100 µM (inactive) | GI50 [4]: > 100 µM (inactive) | GI50 [5]: > 100 µM (inactive) | GI50 [6]: > 100 µM (inactive) | GI50 [7]: > 100 µM (inactive) | GI50 [8]: > 100 µM (inactive) | GI50 [9]: > 100 µM (inactive) | GI50 [10]: > 100 µM (inactive) | GI50 [11]: > 100 µM | GI50 [12]: > 100 µM (inactive) | GI50 [13]: > 100 µM (inactive) | GI50 [14]: > 100 µM (inactive) | GI50 [15]: > 100 µM (inactive) | GI50 [16]: > 100 µM (inactive) | GI50 [17]: > 100 µM (inactive) | GI50 [18]: > 100 µM (inactive) | GI50 [19]: > 100 µM (inactive) | GI50 [20]: > 100 µM (inactive) | GI50 [21]: > 100 µM (inactive) | GI50 [22]: > 100 µM (inactive) | GI50 [23]: > 100 µM (inactive) | GI50 [24]: > 100 µM (inactive) | GI50 [25]: > 100 µM (inactive) | GI50 [26]: > 100 µM (inactive) | GI50 [27]: > 100 µM (inactive) | GI50 [28]: > 100 µM (inactive) | GI50 [29]: 62.1 µM (inactive) | GI50 [30]: > 100 µM (inactive) | GI50 [31]: > 100 µM (inactive) | GI50 [32]: > 100 µM (inactive) | GI50 [33]: > 100 µM (inactive) | GI50 [34]: > 100 µM (inactive) | GI50 [35]: > 100 µM (inactive) | GI50 [36]: > 100 µM (inactive) | GI50 [37]: > 100 µM (inactive) | GI50 [38]: > 100 µM (inactive) | GI50 [39]: > 100 µM (inactive) | GI50 [40]: > 100 µM (inactive) | GI50 [41]: > 100 µM (inactive) | GI50 [42]: > 100 µM (inactive) | GI50 [43]: > 100 µM (inactive) | GI50 [44]: > 100 µM (inactive) | GI50 [45]: > 100 µM (inactive) | GI50 [46]: > 100 µM (inactive) | GI50 [47]: > 100 µM (inactive) | GI50 [48]: > 100 µM (inactive) | GI50 [49]: > 100 µM (inactive) | GI50 [50]: > 100 µM (inactive) | GI50 [51]: > 100 µM (inactive) | GI50 [52]: > 100 µM (inactive)

Cc1ccc(O)c(C2=CC(c3cccc(Br)c3)SC(=N)N2)c1 (centres undefined)
GI50 [1]: 23.7 µM (inactive) | GI50 [2]: 25.8 µM (inactive) | GI50 [3]: 23.3 µM (inactive) | GI50 [4]: 29.8 µM (inactive) | GI50 [5]: 28.4 µM (inactive) | GI50 [6]: 25.6 µM (inactive) | GI50 [7]: 17.5 µM (inactive) | GI50 [8]: 34.5 µM (inactive) | GI50 [9]: 21 µM (inactive) | GI50 [10]: 17.3 µM (inactive) | GI50 [11]: 14.5 µM | GI50 [12]: 29 µM (inactive) | GI50 [53]: 21.6 µM (inactive) | GI50 [13]: 19 µM (inactive) | GI50 [14]: 33.7 µM (inactive) | GI50 [15]: 20.4 µM (inactive) | GI50 [16]: 18.8 µM (inactive) | GI50 [17]: 24.5 µM (inactive) | GI50 [18]: 27 µM (inactive) | GI50 [54]: 18.5 µM (inactive) | GI50 [19]: 24.3 µM (inactive) | GI50 [20]: 23.3 µM (inactive) | GI50 [21]: 25.8 µM (inactive) | GI50 [22]: 18.7 µM (inactive) | GI50 [23]: 19.7 µM (inactive) | GI50 [24]: 18.9 µM (inactive) | GI50 [25]: 25.2 µM (inactive) | GI50 [26]: 26.9 µM (inactive) | GI50 [27]: 25.6 µM (inactive) | GI50 [28]: 20.5 µM (inactive) | GI50 [29]: 16 µM (inactive) | GI50 [30]: 27.9 µM (inactive) | GI50 [55]: 39.5 µM (inactive) | GI50 [56]: 28.9 µM (inactive) | GI50 [31]: 29.5 µM (inactive) | GI50 [32]: 35.2 µM (inactive) | GI50 [33]: 26.1 µM (inactive) | GI50 [34]: 18 µM (inactive) | GI50 [35]: 19.5 µM (inactive) | GI50 [36]: 28.8 µM (inactive) | GI50 [37]: 21.2 µM (inactive) | GI50 [38]: 22.4 µM (inactive) | GI50 [39]: 18.2 µM (inactive) | GI50 [40]: 17 µM (inactive) | GI50 [41]: 28.8 µM (inactive) | GI50 [42]: 20.8 µM (inactive) | GI50 [43]: 13.6 µM (inactive) | GI50 [44]: 19.5 µM (inactive) | GI50 [45]: 17.1 µM (inactive) | GI50 [46]: 28.4 µM (inactive) | GI50 [47]: 26.5 µM (inactive) | GI50 [48]: 19.6 µM (inactive) | GI50 [49]: 17.5 µM (inactive) | GI50 [50]: 20.1 µM (inactive) | GI50 [51]: 17.1 µM (inactive) | GI50 [52]: 25 µM (inactive)

Cn1c(SCc2ccc([N+](=O)[O-])cc2)nnc1C12CC3CC(CC(C3)C1)C2
GI50 [1]: > 10 µM (inactive) | GI50 [57]: > 10 µM (inactive) | GI50 [2]: > 10 µM (inactive) | GI50 [3]: > 10 µM (inactive) | GI50 [4]: > 10 µM (inactive) | GI50 [5]: > 10 µM (inactive) | GI50 [6]: > 10 µM (inactive) | GI50 [7]: > 10 µM (inactive) | GI50 [8]: > 10 µM (inactive) | GI50 [9]: > 10 µM (inactive) | GI50 [58]: > 10 µM (inactive) | GI50 [10]: > 10 µM (inactive) | GI50 [11]: > 10 µM | GI50 [12]: > 10 µM (inactive) | GI50 [53]: > 10 µM (inactive) | GI50 [13]: > 10 µM (inactive) | GI50 [14]: > 10 µM (inactive) | GI50 [15]: > 10 µM (inactive) | GI50 [16]: > 10 µM (inactive) | GI50 [17]: > 10 µM (inactive) | GI50 [18]: > 10 µM (inactive) | GI50 [54]: > 10 µM (inactive) | GI50 [19]: > 10 µM (inactive) | GI50 [20]: > 10 µM (inactive) | GI50 [21]: > 10 µM (inactive) | GI50 [22]: > 10 µM (inactive) | GI50 [23]: > 10 µM (inactive) | GI50 [24]: > 10 µM (inactive) | GI50 [25]: > 10 µM (inactive) | GI50 [26]: > 10 µM (inactive) | GI50 [27]: > 10 µM (inactive) | GI50 [28]: > 10 µM (inactive) | GI50 [29]: > 10 µM (inactive) | GI50 [30]: > 10 µM (inactive) | GI50 [55]: > 10 µM (inactive) | GI50 [56]: > 10 µM (inactive) | GI50 [31]: > 10 µM (inactive) | GI50 [32]: > 10 µM (inactive) | GI50 [33]: > 10 µM (inactive) | GI50 [34]: > 10 µM (inactive) | GI50 [35]: > 10 µM (inactive) | GI50 [36]: > 10 µM (inactive) | GI50 [37]: > 10 µM (inactive) | GI50 [38]: > 10 µM (inactive) | GI50 [59]: > 10 µM (inactive) | GI50 [39]: > 10 µM (inactive) | GI50 [40]: > 10 µM (inactive) | GI50 [41]: > 10 µM (inactive) | GI50 [42]: > 10 µM (inactive) | GI50 [43]: > 10 µM (inactive) | GI50 [44]: 4.66 µM (inactive) | GI50 [46]: > 10 µM (inactive) | GI50 [47]: > 10 µM (inactive) | GI50 [49]: > 10 µM (inactive) | GI50 [51]: > 10 µM (inactive) | GI50 [52]: > 10 µM (inactive)
